Assays:
[1] = tested on: PBMCs from LS Rhesus macaques; test: IFNγ ELISpot assay with PBMCs from LS Rhesus macaques; type: cell-based; settings: stimulated 48 h (FIG. 22B)
Description: FIG. 22A-B. Validation of the predicted neoAg in LS Rhesus macaques. A) Immunogenicity of neoAg peptide pools and deconvoluted neoAg with ELISpot assay. PBMCs from LS Rhesus macaques (n=4) were stimulated with […] and 12 individual peptides from the pools, concavalin A (+ve control), and DMSO (−ve control) for 48 h. B) ELISpot images. […] Spot forming Units for IFNγ secretion were analyzed and quantitated by ELISpot plate reader.
Since the ultimate goal is to develop a universal LS-cancer vaccine. the inventors then tested the immunogenicity of the ELISpot-reactive peptides in PBMCs from LS Rhesus macaques who carry a pathogenic mutation in the MLH1 gene with pathology similar to human LS. These animals. housed at MD Anderson Cancer Center, spontaneously develop CRC and serve as an ideal preclinical LS model for immune-interception strategies with neoAg vaccines. PBMCs from four different LS Rhesus were stimulated with four peptide pools and 12 individual peptides for ELISpot assays as indicated in FIG. 22A.

[2] = LS patients, long-term exposure; cited from earlier work

Compound | immunogenicity of deconvoluted peptides in stimulated rhesus PBMC (ELISpot) [1] | resident immune cells within the mucosal tissue of the colon [2]
CELSR2: deconvoluted neoAg peptide from CELSR2, tested in LS Rhesus PBMCs (RLDKGNFAGA) | except PLOD1 and CELSR2 were determined immunogenic | 
COc1ccc2cc([C@H](C)C(=O)O)ccc2c1 [naproxen] |  | increase of resident immune cells within the mucosal tissue of the colon

From US20240218019A1, “METHODS AND COMPOSITIONS COMPRISING MHC CLASS I PEPTIDES” (BOARD OF REGENTS, THE UNIVERSITY OF TEXAS SYSTEM, priority 2021, published 2024)
